Measured values as given in ChEMBL document CHEMBL5053553, “Structure-activity relationship around PI-2620 highlights the importance of the nitrogen atom position in the tricyclic core” (Bioorg Med Chem, 2021).

Assays:
[1] = molecular target: Microtubule-associated protein tau (Homo sapiens, UniProt P10636); experiment: Displacement of [3H]PI-2620 from Tau in human brain homogenate incubated for 60 mins by radioligand binding assay; assay type: tissue-based
[2] = molecular target: T1, Amine oxidase [flavin-containing] A (Mus musculus, UniProt Q64133); experiment: Displacement of [18F]-FEH from MAO-A in mouse brain homogenate incubated for 60 mins by imaging analysis; assay type: tissue-based
T1 sequence (Q64133 whole entry): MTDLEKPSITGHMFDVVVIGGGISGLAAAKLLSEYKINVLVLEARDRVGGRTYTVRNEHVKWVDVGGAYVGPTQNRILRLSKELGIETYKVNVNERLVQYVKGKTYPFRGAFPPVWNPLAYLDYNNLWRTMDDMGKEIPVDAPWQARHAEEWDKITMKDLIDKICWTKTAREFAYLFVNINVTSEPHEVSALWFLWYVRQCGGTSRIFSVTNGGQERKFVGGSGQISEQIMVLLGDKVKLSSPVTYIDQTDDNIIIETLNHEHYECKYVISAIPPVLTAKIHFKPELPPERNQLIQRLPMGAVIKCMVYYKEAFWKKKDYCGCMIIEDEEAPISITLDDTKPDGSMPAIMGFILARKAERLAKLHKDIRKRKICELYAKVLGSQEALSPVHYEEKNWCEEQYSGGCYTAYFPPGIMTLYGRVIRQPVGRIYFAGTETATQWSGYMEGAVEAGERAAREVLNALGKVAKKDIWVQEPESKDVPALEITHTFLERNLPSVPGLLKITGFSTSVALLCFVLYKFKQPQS

Chain of Microtubule-associated protein tau (P10636 whole entry): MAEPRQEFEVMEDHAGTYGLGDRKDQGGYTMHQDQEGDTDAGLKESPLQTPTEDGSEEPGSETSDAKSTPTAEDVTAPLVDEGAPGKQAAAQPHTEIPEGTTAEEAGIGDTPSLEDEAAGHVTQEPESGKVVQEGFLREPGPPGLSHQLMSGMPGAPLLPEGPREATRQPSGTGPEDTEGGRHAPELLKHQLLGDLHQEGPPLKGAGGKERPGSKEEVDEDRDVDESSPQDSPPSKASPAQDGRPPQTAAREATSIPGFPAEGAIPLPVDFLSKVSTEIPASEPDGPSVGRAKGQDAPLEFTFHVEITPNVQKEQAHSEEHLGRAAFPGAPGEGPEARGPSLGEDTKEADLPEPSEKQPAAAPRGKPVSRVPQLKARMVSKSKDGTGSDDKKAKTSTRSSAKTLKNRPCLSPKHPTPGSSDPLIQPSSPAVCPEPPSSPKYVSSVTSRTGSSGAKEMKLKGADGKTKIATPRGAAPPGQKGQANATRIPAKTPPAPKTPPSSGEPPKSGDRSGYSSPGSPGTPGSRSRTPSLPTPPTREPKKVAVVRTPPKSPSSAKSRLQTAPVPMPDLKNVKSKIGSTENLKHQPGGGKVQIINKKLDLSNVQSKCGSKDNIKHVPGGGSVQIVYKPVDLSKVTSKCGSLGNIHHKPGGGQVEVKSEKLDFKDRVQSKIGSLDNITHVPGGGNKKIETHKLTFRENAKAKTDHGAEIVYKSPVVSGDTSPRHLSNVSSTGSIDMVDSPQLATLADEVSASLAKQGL

SMILES | IC50 [1] | IC50 [2]
Fc1cc(-c2ccc3c(n2)[nH]c2cccnc23)ccn1 | 260 nM | 
Fc1cc(-c2ccc3c(n2)[nH]c2ncccc23)ccn1 | 310 nM | 
Fc1ncccc1-c1ccc2c(n1)[nH]c1ccncc12 | 15.5 nM | > 1000 nM
Fc1ncccc1-c1cnc2c(c1)[nH]c1ccncc12 | 344 nM | > 1000 nM
Fc1ncccc1-c1ccc2c(n1)[nH]c1cnccc12 | 70 nM | 
Fc1ncccc1-c1ccc2c(n1)[nH]c1ncccc12 | > 1000 nM | 
Fc1ncccc1-c1cc2[nH]c3ccncc3c2cn1 | 732 nM | > 1000 nM
Fc1ncccc1-c1ccc2c(n1)[nH]c1cccnc12 | 559 nM | 

The remaining lines, values ahead:

IC50 [1] | IC50 [2] | SMILES
82 nM | > 1000 nM | Fc1cc(-c2cc3[nH]c4ccncc4c3cn2)ccn1
3.5 nM | 7.8 nM | Fc1ncccc1-c1ccc2c(c1)[nH]c1ccncc12
3.1 nM |  | Fc1cc(-c2ccc3c(c2)[nH]c2ccncc23)ccn1
36 nM |  | Fc1cc(-c2ccc3c(n2)[nH]c2cnccc23)ccn1
4.9 nM | > 1000 nM | Fc1cc(-c2ccc3c(n2)[nH]c2ccncc23)ccn1
116 nM | > 1000 nM | Fc1cc(-c2cnc3c(c2)[nH]c2ccncc23)ccn1
18 nM | > 1000 nM | Fc1cc(-c2nc3[nH]c4ccncc4c3s2)ccn1
